The values below are quoted from earlier work in patent publication US7611833B2, “Yeast genes that affect viral replication” (priority 2001, dated 2009).

Data set [1] deals with alphavirus SFV.
The subject of data set [2] is poliovirus.
Data set [3] relates to poliovirus. This is another data set of the same source.
Data set [4] concerns poliovirus. This is another data set of the same source.
Data set [5] relates to HeLa cells. The conditions noted are these: HeLa cells treated with oleic acid.

Like-named read-outs stand apart in the source and are kept apart here.

For the molecule `C/C=C/C/C=C/CCC(=O)[C@H]1O[C@H]1C(N)=O` [Cerulenin], the “RNA replication by the alphavirus SFV” value in data set [1] is on record as “inhibits RNA replication”. In addition, the “RNA replication by poliovirus” value in data set [2] is “inhibits RNA replication”.

Regarding `CCCCCCCC/C=C\CCCCCCCC(=O)O` [oleic acid], the In vitro translation result in data set [3] is on record as “inhibited in vitro translation”. Further, the “Poliovirus RNA replication” value in data set [3] and in data set [4] was “disrupts poliovirus RNA replication” each time. For the same molecule, the Synthesis of lipids entry in data set [5] was “major changes in the synthesis of many lipids”.
